Common to all, as to format: biochemical
One experiment deals with T1, recombinant 5-LOX (Homo sapiens, UniProt P09917).
T1 sequence (P09917 1-674): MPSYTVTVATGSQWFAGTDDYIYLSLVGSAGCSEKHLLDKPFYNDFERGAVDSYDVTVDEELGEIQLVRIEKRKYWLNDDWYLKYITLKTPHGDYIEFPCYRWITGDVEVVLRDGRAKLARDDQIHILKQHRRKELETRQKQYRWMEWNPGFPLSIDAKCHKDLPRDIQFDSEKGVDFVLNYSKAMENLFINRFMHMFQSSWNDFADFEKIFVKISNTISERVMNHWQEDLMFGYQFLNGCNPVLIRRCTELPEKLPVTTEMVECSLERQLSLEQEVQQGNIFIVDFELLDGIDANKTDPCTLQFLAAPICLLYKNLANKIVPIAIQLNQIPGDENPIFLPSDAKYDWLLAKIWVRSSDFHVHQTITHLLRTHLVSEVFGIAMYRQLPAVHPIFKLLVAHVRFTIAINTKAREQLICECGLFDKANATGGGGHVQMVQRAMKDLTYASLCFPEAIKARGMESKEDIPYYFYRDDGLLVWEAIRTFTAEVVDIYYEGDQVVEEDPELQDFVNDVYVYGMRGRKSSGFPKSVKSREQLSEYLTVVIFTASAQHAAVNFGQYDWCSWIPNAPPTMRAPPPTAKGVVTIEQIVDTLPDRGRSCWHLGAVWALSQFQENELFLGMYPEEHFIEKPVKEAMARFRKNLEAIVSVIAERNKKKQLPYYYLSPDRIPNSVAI
In words: 5-LOX fluorescent assay. Particulars: several values in one cell = repeat determinations; read-out: IC50 (μM) values for in vitro lipoxygenase inhibition, 5-LOX. The procedure:
5-LOX FI assay Fluorescent Assay
The enzyme assay (100 μL) contained 50 mM Tris, pH 7.5, 0.1 mM EDTA, 0.3 mM CaCl2, 20 μM AA, 100 μM ATP, 1 μM DHR123, and recombinant 5-LOX cell lysate (0.5 μL/100 μL). Inhibitors (dissolved in DMSO) were plated at 1 μL into 96-well assay microplates followed by a 40 μL addition of a solution containing 5-LOX enzyme. Enzyme was pre-incubated with compounds for 15 mins. The assay was initiated by the addition of a 40 μL substrate solution containing AA and ATP, and 20 μL addition of a solution containing DHR123. Enzymatic reaction proceeded for 30 min with kinetic reading at 500 nm excitation & 536 nm emission in SpectraMax Paradigm (MolecularDevice). Percent inhibition was calculated for each compound dose for IC50 curve fitting using 4 Parameter Logistic Model or Sigmoidal Dose-Response Model.

Experiment [1] deals with T2, recombinant 12-LOX enzyme (Homo sapiens, UniProt P18054).
T2 sequence (P18054 1-663): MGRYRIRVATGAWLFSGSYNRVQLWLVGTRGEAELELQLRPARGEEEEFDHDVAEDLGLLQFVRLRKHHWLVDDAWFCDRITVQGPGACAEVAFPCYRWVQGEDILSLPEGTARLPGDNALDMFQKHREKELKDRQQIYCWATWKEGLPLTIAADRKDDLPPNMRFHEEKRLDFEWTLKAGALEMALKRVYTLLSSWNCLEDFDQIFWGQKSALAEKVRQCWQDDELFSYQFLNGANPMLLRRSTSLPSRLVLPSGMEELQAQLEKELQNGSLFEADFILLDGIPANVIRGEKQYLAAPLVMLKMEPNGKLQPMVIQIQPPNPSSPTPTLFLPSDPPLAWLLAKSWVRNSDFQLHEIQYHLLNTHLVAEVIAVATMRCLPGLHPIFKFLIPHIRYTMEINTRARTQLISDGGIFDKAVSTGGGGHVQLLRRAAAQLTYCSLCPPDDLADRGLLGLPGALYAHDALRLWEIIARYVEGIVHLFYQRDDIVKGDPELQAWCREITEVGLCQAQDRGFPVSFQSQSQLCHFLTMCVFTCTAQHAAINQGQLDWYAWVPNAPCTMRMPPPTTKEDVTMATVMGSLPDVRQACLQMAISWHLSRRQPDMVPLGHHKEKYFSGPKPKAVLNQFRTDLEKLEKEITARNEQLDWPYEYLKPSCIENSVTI
In words: 12-LOX fluorescent assay. The settings on record: several values in one cell = repeat determinations; read-out: IC50 (μM) values for in vitro lipoxygenase inhibition, 12-LOX. As to the method: (§1) 12-LOX/15-LOX Fluorescent Assay
(§2) The enzyme assay (100 ul) contained 50 mM Tris, pH 7.5, 0.05% Tween-20, 20 μM AA/LA, 1 μM DHR123, and 100 nM recombinant 12-LOX enzyme/50 nM recombinant 15-LOX enzyme. Inhibitors (dissolved in DMSO) were plated at 1 μL into 96-well assay microplates followed by a 40 μL addition of a solution containing 12-LOX/15-LOX enzyme. Enzyme was pre-incubated with compounds for 15 mins. The assay was initiated by the addition of a 40 μL substrate solution containing AA/LA, and 20 μL addition of a solution containing DHR123. Enzymatic reaction proceeded for 30 min with kinetic reading at 500 nm excitation & 536 nm emission in SpectraMax Paradigm (MolecularDevice). Percent inhibition was calculated for each compound dose for IC50 curve fitting using 4 Parameter Logistic Model or Sigmoidal Dose-Response Model.

Experiment [2] has as its target T3, recombinant 15-LOX enzyme (Homo sapiens, UniProt P16050).
T3 sequence (P16050 1-662): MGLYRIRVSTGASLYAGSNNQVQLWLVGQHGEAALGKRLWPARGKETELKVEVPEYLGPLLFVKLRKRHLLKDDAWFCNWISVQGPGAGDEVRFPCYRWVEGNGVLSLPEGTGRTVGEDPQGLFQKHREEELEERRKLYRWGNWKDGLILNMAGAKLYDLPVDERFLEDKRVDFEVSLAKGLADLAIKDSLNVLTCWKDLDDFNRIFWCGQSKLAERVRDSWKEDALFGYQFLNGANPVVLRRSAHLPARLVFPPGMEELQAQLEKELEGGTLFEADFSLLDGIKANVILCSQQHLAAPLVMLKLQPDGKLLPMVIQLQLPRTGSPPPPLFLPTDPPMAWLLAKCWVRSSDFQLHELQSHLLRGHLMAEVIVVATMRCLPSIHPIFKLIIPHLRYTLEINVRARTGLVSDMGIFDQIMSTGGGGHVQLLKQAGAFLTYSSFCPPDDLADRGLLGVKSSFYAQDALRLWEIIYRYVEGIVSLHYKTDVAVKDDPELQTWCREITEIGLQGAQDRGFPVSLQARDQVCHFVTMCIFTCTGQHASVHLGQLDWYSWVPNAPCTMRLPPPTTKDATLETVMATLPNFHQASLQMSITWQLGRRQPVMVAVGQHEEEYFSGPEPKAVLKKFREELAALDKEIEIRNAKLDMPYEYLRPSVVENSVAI
In words: 15-LOX fluorescent assay. Particulars: several values in one cell = repeat determinations. As to the method: as §1, §2

Setting [3] is: read-out: IC50 (μM) values for in vitro lipoxygenase inhibition, 15-LOX.
Where [4] appears, read: IC50 (μM) values for in vitro lipoxygenase inhibition, 15-LOX.

SMILES strings stand for the structures. Where “and” joins values, the source holds several entries; their conditions need not be identical. Identical values can stand only once. Like-named read-outs stand apart in the source and are kept apart here. Some results are limits rather than exact numbers.

As a reminder, the IC50 is the midpoint of a concentration-inhibition curve.

Turning to `c1ccc(N(CCCn2cncn2)c2ccc3c(c2)[nH]c2ccccc23)cc1` [SS20308-0060-01, N-(3-(1H-1,2,4-triazol-1-yl)propyl)-N-phenyl-9H-carbazol-2-amine], the half-maximal inhibitory concentration (IC50) at recombinant 5-LOX worked out at 0.62 µM; in experiment [1], 0.99 µM; in experiment [2] (setting [3]) it was 2.19 µM.
Take `CN(C)C(=O)CC(c1ccccc1)c1ccc2[nH]c3ccccc3c2c1` (stereo not drawn) [SS20308-0222-01, 3-(9H-carbazol-3-yl)-N,N-dimethyl-3-phenylpropanamide]: the half-inhibitory concentration (IC50) stood at 10.9 µM at recombinant 5-LOX, 14 µM in experiment [1] and 4.53 µM in experiment [2] (setting [3]).
On to `Fc1cccc2c1[nH]c1cc3c(cc12)CCN3CCn1cncn1` [SS20308-0243-01, 1-(2-(1H-1,2,4-triazol-1-yl)ethyl)-8-fluoro-1,2,3,9-tetrahydropyrrolo[2,3-b]car bazole], for which the half-maximal inhibitory concentration (IC50) at recombinant 5-LOX was 0.2 µM; in experiment [1] it was 0.03 µM; in experiment [2] (setting [3]) it was 1.13 µM.
Turning to `Cc1c2[nH]c3ccccc3c2cc2[nH]c3ccccc3c12` [SS20308-0112-01, 6-methyl-5,11-dihydroindolo[3,2-b]carbazole], the IC50 (on recombinant 5-LOX; in experiment [1]; in experiment [2] (setting [3])) was more than 100 µM throughout.
Take `CN(C)CCCOc1cccc2c1-c1[nH]c3ccccc3c1CS2` [SS20308-0090-01, 3-(6,11-dihydrothiochromeno[4,3-b]indol-1-yloxy)-N,N-dimethylpropan-1-amine]: the IC50 on recombinant 5-LOX is 0.47 µM; in experiment [1], 0.43 µM; in experiment [2] (setting [3]), 0.69 µM.
Regarding `CN(C)CCOc1cc(Oc2ccccc2)cc2c1[nH]c1ccc(F)cc12` [SS20308-0054-01], the IC50 on recombinant 5-LOX stood at 6.83 µM; in experiment [1], 7.6 µM; in experiment [2] (setting [3]), 1.82 µM.
As for `c1ccc2c(c1)CCc1cc(C3CCOCC3)c(NCCn3cncn3)cc1N2` [SS20308-0305-01, N-(2-(1H-1,2,4-triazol-1-yl)ethyl)-2-(tetrahydro-2H-pyran-4-yl)-10,11-dihydro-5H-dibenzo[b,f]azepin-3-amine], the IC50 at recombinant 5-LOX amounted to 0.2 µM; in experiment [1] it was 0.14 µM; in experiment [2] (setting [3]) it was 0.58 µM.
For `CN(C)CCOc1c2nc(-c3ccccc3)[nH]c2cc2[nH]c3ccccc3c12` [SS20308-0122-01, N,N-dimethyl-2-(2-phenyl-3,5-dihydroimidazo[4,5-b]carbazol-10-yloxy)ethanamine], the figures for the half-maximal inhibitory concentration (IC50) (at recombinant 5-LOX; in experiment [1]; in experiment [2] (setting [4])) were 1.02 µM, 0.87 µM and 1.38 µM, respectively.
With `Fc1c(NCC2(Cn3cncn3)COC2)ccc2[nH]c3ccccc3c12` [SS20308-0312-01, N-((3-((1H-1,2,4-triazol-1-yl)methyl)oxetan-3-yl)methyl)-4-fluoro-9H-carbazol-3-amine], the concentration for half-maximal inhibition (IC50) at recombinant 5-LOX turned out to be 0.09 µM; in experiment [1], 0.03 µM; in experiment [2] (setting [3]), 0.15 µM.
For `CN(CCn1cncn1)c1cc2c(cc1-c1ccccc1)[nH]c1ccc(F)cc12` [SS20308-0182-01, N-(2-(1H-1,2,4-triazol-1-yl)ethyl)-6-fluoro-N-methyl-2-phenyl-9H-carbazol-3-amine], the half-maximal inhibitory concentration (IC50) was 0.77 µM on recombinant 5-LOX, 0.31 µM in experiment [1] and 1.4 µM in experiment [2] (setting [4]).
Take `CN(C)CCOc1c2[nH]c3ccc(F)cc3c2c(F)c2[nH]c3ccc(F)cc3c12` [SS20308-0101-01, N,N-dimethyl-2-(2,8,12-trifluoro-5,11-dihydroindolo[3,2-b]carbazol-6-yloxy) ethanamine]: the concentration for half-maximal inhibition (IC50) on recombinant 5-LOX was 0.07 µM and 0.05 µM and 0.04 µM; in experiment [1], 0.08 µM and 0.1 µM and 0.12 µM; in experiment [2] (setting [3]), 40 nM (2×) and 70 nM.
For `c1ccc(-c2cc3c(cc2NCCn2cncn2)[nH]c2ccccc23)cc1` [SS20308-0061-01, N-(2-(1H-1,2,4-triazol-1-yl)ethyl)-3-phenyl-9H-carbazol-2-amine], the IC50 on recombinant 5-LOX is 0.36 µM and 0.79 µM; in experiment [1], 0.19 µM and 0.29 µM; in experiment [2] (setting [4]), 0.94 µM and 1.33 µM.
`CC1(C)CN(CCn2cncn2)c2cc3[nH]c4ccccc4c3cc21` [SS20308-0209-01, 1-(2-(1H-1,2,4-triazol-1-yl)ethyl)-3,3-dimethyl-1,2,3,9-tetrahydropyrrolo[2,3-b] carbazole]: the concentration for half-maximal inhibition (IC50) turned out to be 0.92 µM at recombinant 5-LOX, 0.03 µM in experiment [1] and 1.12 µM in experiment [2] (setting [3]).
Take `Cc1cc2[nH]c3ccc(F)cc3c2cc1NCC1(Cn2cncn2)COC1` [SS20308-0233-01, N-((3-((1H-1,2,4-triazol-1-yl)methyl)oxetan-3-yl)methyl)-6-fluoro-2-methyl-9H-carbazol-3-amine]: the figures for the half-maximal inhibitory concentration (IC50) (at recombinant 5-LOX; in experiment [1]; in experiment [2] (setting [3])) were 0.19 µM, 0.03 µM and 0.2 µM, respectively.
On to `CN(C)CCOc1c(-c2ccccc2[N+](=O)[O-])ccc2c1[nH]c1ccccc12` [SS20308-0077-01, N,N-dimethyl-2-(2-(2-nitrophenyl)-9H-carbazol-1-yloxy)ethanamine], for which the concentration for half-maximal inhibition (IC50) on recombinant 5-LOX was 2.66 µM; in experiment [1], 2.32 µM; in experiment [2] (setting [3]), 2.15 µM.
The corresponding values for `CN(C)CCOc1c2[nH]c(-c3ccccc3)nc2c(F)c2c1[nH]c1ccccc12` [SS20308-0121-01, 2-(10-fluoro-2-phenyl-3,5-dihydroimidazo[4,5-b]carbazol-4-yloxy)-N,N-dimethylethanamine] are 0.53 µM, 1.16 µM and 0.86 µM.
As for `COc1c2[nH]c(-c3ccccc3)nc2c(F)c2c1[nH]c1ccccc12` [SS20308-0137-01, 10-fluoro-4-methoxy-2-phenyl-3,5-dihydroimidazo[4,5-b]carbazole], the results for the IC50 (on recombinant 5-LOX; in experiment [1]; in experiment [2] (setting [3])) were 0.72 µM, 0.53 µM and 0.5 µM, respectively.
